Reference: ChEMBL document CHEMBL2029323, “The discovery and development of selective 3-fluoro-4-aryloxyallylamine inhibitors of the amine oxidase activity of semicarbazide-sensitive amine oxidase/vascular adhesion protein-1 (SSAO/VAP-1)” (Bioorg Med Chem Lett, 2012)

Experiments:
[1] = target: T1, Amine oxidase [flavin-containing] A (Homo sapiens, UniProt P21397); assay: Inhibition of human recombinant MAO-A assessed as H2O2 production by Resorufin/Amplex Red assay
T1 sequence (P21397 whole entry): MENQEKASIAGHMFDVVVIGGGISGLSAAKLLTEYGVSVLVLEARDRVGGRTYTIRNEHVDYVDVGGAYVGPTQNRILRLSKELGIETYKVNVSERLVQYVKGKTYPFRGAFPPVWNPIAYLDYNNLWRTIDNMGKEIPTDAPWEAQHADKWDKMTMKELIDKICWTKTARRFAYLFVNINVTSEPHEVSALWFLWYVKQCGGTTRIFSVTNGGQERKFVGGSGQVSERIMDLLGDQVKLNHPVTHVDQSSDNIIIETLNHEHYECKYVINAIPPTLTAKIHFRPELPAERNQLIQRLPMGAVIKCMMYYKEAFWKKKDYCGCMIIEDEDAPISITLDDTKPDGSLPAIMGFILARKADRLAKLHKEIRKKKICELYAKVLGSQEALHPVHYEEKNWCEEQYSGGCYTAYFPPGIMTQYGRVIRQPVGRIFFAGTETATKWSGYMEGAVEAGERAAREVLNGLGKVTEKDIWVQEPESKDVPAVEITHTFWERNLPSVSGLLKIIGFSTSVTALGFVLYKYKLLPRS

[2] = target: T2, Amine oxidase [copper-containing] 3 (Homo sapiens, UniProt Q16853); assay: Inhibition of human recombinant SSAO/VAP1 assessed as H2O2 production by Resorufin/Amplex Red assay
T2 sequence (Q16853 whole entry): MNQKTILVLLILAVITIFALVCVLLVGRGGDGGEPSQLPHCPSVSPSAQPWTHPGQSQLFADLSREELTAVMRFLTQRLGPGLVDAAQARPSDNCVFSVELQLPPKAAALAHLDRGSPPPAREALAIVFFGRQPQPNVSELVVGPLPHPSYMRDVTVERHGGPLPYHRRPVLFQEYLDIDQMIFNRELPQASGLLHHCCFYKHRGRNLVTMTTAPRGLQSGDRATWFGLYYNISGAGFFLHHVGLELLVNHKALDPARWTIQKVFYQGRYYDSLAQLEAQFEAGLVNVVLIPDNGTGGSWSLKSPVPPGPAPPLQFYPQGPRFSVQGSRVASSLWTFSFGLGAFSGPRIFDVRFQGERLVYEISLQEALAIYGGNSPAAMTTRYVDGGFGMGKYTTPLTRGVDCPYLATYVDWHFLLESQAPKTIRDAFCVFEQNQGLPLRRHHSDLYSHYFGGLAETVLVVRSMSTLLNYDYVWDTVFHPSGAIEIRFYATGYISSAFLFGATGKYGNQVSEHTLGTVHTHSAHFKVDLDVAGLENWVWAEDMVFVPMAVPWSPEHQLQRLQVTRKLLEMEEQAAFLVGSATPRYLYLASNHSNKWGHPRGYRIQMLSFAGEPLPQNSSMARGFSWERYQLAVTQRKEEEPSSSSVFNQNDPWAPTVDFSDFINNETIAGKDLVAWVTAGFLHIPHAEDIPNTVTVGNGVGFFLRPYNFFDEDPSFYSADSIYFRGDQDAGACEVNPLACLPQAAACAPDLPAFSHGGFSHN

[3] = target: T3, Amine oxidase [flavin-containing] B (Homo sapiens, UniProt P27338); assay: Inhibition of human recombinant MAO-B assessed as H2O2 production by Resorufin/Amplex Red assay
T3 sequence (P27338 whole entry): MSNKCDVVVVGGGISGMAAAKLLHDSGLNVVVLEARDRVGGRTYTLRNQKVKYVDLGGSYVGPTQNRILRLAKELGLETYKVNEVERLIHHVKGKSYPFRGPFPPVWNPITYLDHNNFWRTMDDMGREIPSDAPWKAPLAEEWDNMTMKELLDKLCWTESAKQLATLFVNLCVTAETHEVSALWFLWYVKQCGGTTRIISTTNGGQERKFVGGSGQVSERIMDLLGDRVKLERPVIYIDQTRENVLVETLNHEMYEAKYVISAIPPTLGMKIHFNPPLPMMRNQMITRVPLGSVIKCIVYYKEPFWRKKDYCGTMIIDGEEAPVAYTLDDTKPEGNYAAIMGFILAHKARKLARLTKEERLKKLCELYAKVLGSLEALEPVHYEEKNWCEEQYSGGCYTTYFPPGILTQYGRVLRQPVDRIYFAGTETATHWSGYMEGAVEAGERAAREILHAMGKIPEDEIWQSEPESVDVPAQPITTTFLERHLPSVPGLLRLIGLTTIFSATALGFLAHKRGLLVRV

[4] = target: T4, Amine oxidase [copper-containing] 3 (Mus musculus, UniProt O70423); assay: Inhibition of SSAO/VAP1 in mouse adipocytes measuring H2O2 production by Resorufin/Amplex Red assay; format: cell-based
T4 sequence (O70423 whole entry): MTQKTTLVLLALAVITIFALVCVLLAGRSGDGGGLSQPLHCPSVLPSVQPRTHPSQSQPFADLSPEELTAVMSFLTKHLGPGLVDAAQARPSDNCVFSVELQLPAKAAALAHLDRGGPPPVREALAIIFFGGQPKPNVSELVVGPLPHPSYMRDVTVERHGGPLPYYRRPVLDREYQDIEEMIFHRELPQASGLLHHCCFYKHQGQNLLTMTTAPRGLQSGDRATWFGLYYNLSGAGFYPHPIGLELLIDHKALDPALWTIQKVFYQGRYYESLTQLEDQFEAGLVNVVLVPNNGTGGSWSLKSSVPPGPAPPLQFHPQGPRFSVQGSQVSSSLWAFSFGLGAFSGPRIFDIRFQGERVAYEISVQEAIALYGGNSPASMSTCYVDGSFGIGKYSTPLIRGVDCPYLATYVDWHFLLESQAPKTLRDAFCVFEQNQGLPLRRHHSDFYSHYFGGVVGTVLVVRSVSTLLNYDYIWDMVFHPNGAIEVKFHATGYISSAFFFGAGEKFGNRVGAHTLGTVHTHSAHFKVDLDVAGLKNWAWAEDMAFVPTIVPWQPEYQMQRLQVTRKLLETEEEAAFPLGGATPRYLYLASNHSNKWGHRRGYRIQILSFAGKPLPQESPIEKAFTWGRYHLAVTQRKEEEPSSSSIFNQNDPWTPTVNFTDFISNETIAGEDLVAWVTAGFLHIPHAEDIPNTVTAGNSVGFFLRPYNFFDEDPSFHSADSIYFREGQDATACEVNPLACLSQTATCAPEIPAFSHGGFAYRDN

[5] = target: recombinant human DAO (diamine oxidase) (Homo sapiens, UniProt P19801); assay: Inhibition of human DAO measuring H2O2 production by Resorufin/Amplex Red assay
[6] = Inhibition of CYP450; format: ADME
[7] = target: T2, Amine oxidase [copper-containing] 3; assay: Inhibition of human SSAO/VAP1 measuring H2O2 production by Kitz and Wilson plot analysis
[8] = Half life in po dosed rat; format: ADME, organism-based; details: in vivo
[9] = target: T5, Amine oxidase [copper-containing] 2 (Homo sapiens, UniProt O75106); assay: Inhibition of human AOC2
T5 sequence (O75106 whole entry): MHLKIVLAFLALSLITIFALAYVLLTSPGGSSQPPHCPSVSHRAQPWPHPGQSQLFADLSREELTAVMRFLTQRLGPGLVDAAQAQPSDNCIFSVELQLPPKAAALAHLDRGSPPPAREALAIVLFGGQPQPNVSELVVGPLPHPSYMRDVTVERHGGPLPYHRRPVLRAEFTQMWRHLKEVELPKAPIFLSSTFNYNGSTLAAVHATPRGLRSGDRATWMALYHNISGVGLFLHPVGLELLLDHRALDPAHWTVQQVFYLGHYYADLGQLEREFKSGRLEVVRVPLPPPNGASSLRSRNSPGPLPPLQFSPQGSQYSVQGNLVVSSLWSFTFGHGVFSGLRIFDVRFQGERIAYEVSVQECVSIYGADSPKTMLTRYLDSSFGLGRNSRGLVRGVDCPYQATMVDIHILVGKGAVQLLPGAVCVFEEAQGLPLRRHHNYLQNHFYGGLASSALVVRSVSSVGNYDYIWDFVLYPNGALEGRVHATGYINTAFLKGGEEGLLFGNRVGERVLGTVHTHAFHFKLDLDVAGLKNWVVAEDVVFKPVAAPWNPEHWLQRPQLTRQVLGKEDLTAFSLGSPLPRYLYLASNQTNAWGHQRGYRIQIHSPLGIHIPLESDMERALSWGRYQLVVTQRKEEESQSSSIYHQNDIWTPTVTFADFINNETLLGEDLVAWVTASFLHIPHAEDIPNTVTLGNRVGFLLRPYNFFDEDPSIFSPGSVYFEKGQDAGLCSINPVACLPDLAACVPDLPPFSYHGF

[10] = Oral bioavailability in rat; format: ADME, organism-based; details: in vivo
Mus musculus = assay: Inhibition of SSAO/VAP1 in po dosed mouse gonadal adipose tissue after 6 hrs; format: functional, organism-based
Rattus norvegicus = assay: Inhibition of SSAO/VAP1 in po dosed rat gonadal adipose tissue after 6 hrs; format: functional, organism-based
Salmonella typhimurium = assay: Mutagenic activity in Salmonella typhimurium by Ames test; format: toxicity, organism-based; details: salmonella enterica subsp. enterica serovar typhimurium

| Compound | IC50 [1] [nM] | IC50 [2] [nM] | IC50 [3] [nM] | other results |
| --- | --- | --- | --- | --- |
| NC/C=C(/F)COc1ccccc1 | > 30000 | 290 | 180 | – |
| NC/C=C(\F)COc1ccccc1 | – | 20000 | – | – |
| NCC=CCOc1ccccc1 [listing 1 of 2 here] | – | > 100000 | – | – |
| NCC=CCOc1ccccc1 [listing 2 of 2 here] | – | 82000 | – | – |
| COc1ccc(OC/C(F)=C\CN)cc1 | – | 160 | 310 | – |
| NC/C=C(/F)COc1ccc(Oc2ccccc2)cc1 | – | 240 | 450 | – |
| NC/C=C(/F)COc1cccc(Cl)c1 | – | 250 | 30 | – |
| CSc1ccc(OC/C(F)=C\CN)cc1 | – | 20 | 160 | – |
| CC(C)(C)c1ccc(OC/C(F)=C\CN)cc1 | > 30000 | 210 | 6400 | – |
| NC/C=C(/F)COc1ccc(OC(F)(F)F)cc1 | – | 180 | 70 | – |
| NC/C=C(/F)COc1ccc([N+](=O)[O-])cc1 | – | 70 | 10 | – |
| NC/C=C(/F)COc1ccc(F)c(F)c1 | – | 190 | 90 | – |
| NC/C=C(/F)COc1ccc(C(F)(F)F)cc1 | – | 40 | 130 | – |
| NC/C=C(/F)COc1cccc(C(F)(F)F)c1 | > 10000 | 150 | 30 | – |
| NC/C=C(/F)COc1ccc(C(N)=O)cc1 | > 30000 | 1070 | > 30000 | – |
| CN(C)C(=O)c1ccc(OC/C(F)=C\CN)cc1 | – | 370 | 19000 | – |
| NC/C=C(/F)COc1ccc(C(=O)N2CCCC2)cc1 | – | 140 | 11000 | – |
| CN(Cc1ccccc1)C(=O)c1ccc(OC/C(F)=C\CN)cc1 | – | 260 | 2210 | – |
| NC/C=C(/F)COc1ccc(C(=O)NC2CCCC2)cc1 | > 30000 | 20 | 1640 | IC50 [4]: 530 nM; IC50 [5]: > 30000 nM |
| NC/C=C(/F)COc1ccc(C(=O)NC2CCCCC2)cc1 | > 30000 | 10 | 1120 | inhibition (INH) [6]: Not Active; IC50 [4]: 150 nM; Ki [7]: 1640 nM; half-life [8]: 1.62 h; IC50 [9]: > 10000 nM; bioavailability [10]: 62%; IC50 [5]: 26100 nM; EC50 (Mus musculus): 10 mg/kg; EC50 (Rattus norvegicus): 10 mg/kg; Activity (Salmonella typhimurium): Non-toxic |
| NC/C=C(/F)COc1ccc(C(=O)NCc2ccccc2)cc1 | – | 80 | 620 | – |
| C[C@@H](NC(=O)c1ccc(OC/C(F)=C\CN)cc1)c1ccccc1 | > 30000 | 30 | 1610 | IC50 [5]: 2460 nM |
| C[C@H](NC(=O)c1ccc(OC/C(F)=C\CN)cc1)c1ccccc1 | > 30000 | 40 | 6430 | IC50 [4]: 130 nM; IC50 [5]: 74100 nM |
| CC(NC(=O)c1ccc(OC/C(F)=C\CN)cc1)c1ccccc1 (racemic) | – | 40 | 2980 | – |
| NC/C(=C/F)CCc1ccc(F)cc1 [MOFEGILINE] | 1780 | 20 | 10 | IC50 [4]: 10 nM; Ki [7]: 1610 nM; IC50 [5]: > 10000 nM |
